Reference: patent US20080221086A1, “Novel Inhibitors of Glutaminyl Cyclase” (PROBIODRUG AG, priority 2006, published 2008)
Like-named read-outs stand apart in the source and are kept apart here.

Biological target: hQC (Homo sapiens, UniProt Q16769)
Experiment: Fluorometric assay of glutaminyl cyclase (QC) inhibition, H-Gln-βNA or H-Gln-AMC substrate
Type: biochemical
Method in brief: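 Ki values were obtained by fitting progress curves to a competitive-inhibition equation, and the rapid screen used 4 mM inhibitor with substrate at 1 KM. Both readouts coupled pyroglutamyl aminopeptidase at pH 8.0 and 30° C: H-Gln-βNA at 0.2 mM (ex/em 320/410 nm) or H-Gln-AMC (380/460 nm).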

hQC, sequence (Q16769 29-361): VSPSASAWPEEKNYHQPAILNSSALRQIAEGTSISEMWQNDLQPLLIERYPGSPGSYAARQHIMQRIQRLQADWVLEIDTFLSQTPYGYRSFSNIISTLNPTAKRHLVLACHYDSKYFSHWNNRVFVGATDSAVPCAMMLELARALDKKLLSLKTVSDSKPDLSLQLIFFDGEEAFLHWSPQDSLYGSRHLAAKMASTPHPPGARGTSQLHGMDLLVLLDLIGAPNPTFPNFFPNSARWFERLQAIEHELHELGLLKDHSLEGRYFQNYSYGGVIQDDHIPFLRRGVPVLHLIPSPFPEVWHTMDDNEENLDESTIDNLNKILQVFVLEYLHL

SMILES | IC50 (read-out: IC50) [µM] | IC50 (compound from preparative synthesis, purified by chromatography, fluorescent assay, read-out: IC50 hQC) [µM]
O=C(CN=C1NC(=O)N(c2ccc3nc[nH]c3c2)C1c1cc(Br)cc(Br)c1)N1CCSCC1 (stereo not drawn) [Compound 179, 1-(3H-Benzoimidazol-5-yl)-5-(3,5-dibromo-phenyl)-4-2-oxo-2-thiomorpholin-4-yl-ethylimino-imidazolidin-2-one] | 4 | 
O=C(C/N=C1\NC(=S)N(c2ccc3nc[nH]c3c2)C1c1cc(Br)cs1)N1CCc2ccccc2C1 (stereo not drawn) [Compound 182, 2-(1-(1H-benzo[d]imidazol-6-yl)-5-(4-bromothiophen-2-yl)-2-thioxoimidazolidin-4-ylideneamino)-1-(3,4-dihydroisoquinolin-2(1H)-yl)ethanone] | 1.3 | 
O=C(CN=C1NC(=S)N(c2ccc3nc[nH]c3c2)C1c1c(F)ccc(Cl)c1F)N1CCCCC1 (stereo not drawn) [Compound 185, 2-(1-(1H-benzo[d]imidazol-6-yl)-5-(3-chloro-2,6-difluorophenyl)-2-thioxoimidazolidin-4-ylideneamino)-1-(piperidin-1-yl)ethanone] | 0.4 | 
Fc1ccc(Cl)c(F)c1C1/C(=N/c2c(Cl)cccc2Cl)NC(=S)N1c1ccc2nc[nH]c2c1 (stereo not drawn) [Compound 188, 1-(3H-Benzoimidazol-5-yl)-5-(3-chloro-2,6-difluoro-phenyl)-4-2,6-dichloro-phenylimino-imidazolidine-2-thione] | 6.7 | 
S=C1NC(=NC2CCc3ccccc32)C(c2ccnc3ccccc23)N1c1ccc2[nH]cnc2c1 (stereo not drawn) [Compound 191, 1-(1H-Benzoimidazol-5-yl)-4-indan-1-ylimino-5-quinolin-4-yl-imidazolidine-2-thione] | 9.4 | 
CC1=CC(C)C(C2/C(=N/C3CCc4ccccc43)NC(=O)N2c2ccc3[nH]cnc3c2)CC1 (stereo not drawn) [Compound 193, 1-(1H-Benzoimidazol-5-yl)-5-(2,4-dimethyl-cyclohex-3-enyl)-4-indan-1-ylimino-imidazolidin-2-one] | 4.9 | 
S=C1N/C(=N\c2cc(Cl)ccc2Cl)C(c2ccc(Cl)cc2)N1c1ccc2[nH]cnc2c1 (stereo not drawn) [Compound 194, 1-(1H-Benzoimidazol-5-yl)-5-(4-chloro-phenyl)-4-2,5-dichloro-phenylimino-imidazolidine-2-thione] | 6.7 | 
C/N=C1/NC(=O)N(c2ccc3[nH]cnc3c2)C1c1ccc2c(c1)OCO2 (stereo not drawn) [Compound 195, 5-Benzo1,3dioxol-5-yl-1-(1H-benzoimidazol-5-yl)-4-methylimino-imidazolidin-2-one] | 1.3 | 
O=C1N/C(=N\C2CCCCC2)C(c2cc3c(cc2Br)OCO3)N1c1ccc2nc[nH]c2c1 (stereo not drawn) [Compound 196, 1-(3H-Benzoimidazol-5-yl)-5-(6-bromo-benzo1,3-dioxol-5-yl)-4-cyclohexylimino-imidazolidin-2-one] | 0.004 | 
CC1=CC(C)C(C2/C(=N/C(C)(C)CC(C)(C)C)NC(=S)N2c2ccc3nc[nH]c3c2)CC1 (stereo not drawn) [Compound 200, 1-(3H-Benzoimidazol-5-yl)-5-(2,4-dimethyl-cyclohex-3-enyl)-4-1,1,3,3-tetramethyl-butylimino-imidazolidine-2-thione] | 5.8 | 
Cc1ccc2occ(C3/C(=N/C4CCCCC4O)NC(=S)N3c3ccc4[nH]cnc4c3)c(=O)c2c1 (stereo not drawn) [Compound 203, 3-{3-(1H-Benzoimidazol-5-yl)-5-2-hydroxy-cyclohexylimino-2-thioxo-imidazolidin-4-yl}-6-methyl-chromen-4-one] | 5.8 | 
O=C1N/C(=N/Cn2nnc3ccccc32)C(c2cc3c(cc2Br)OCO3)N1c1ccc2nc[nH]c2c1 (stereo not drawn) [Compound 204, 1-(3H-Benzoimidazol-5-yl)-4-benzotriazol-1-ylmethylimino-5-(6-bromo-benzo1,3dioxol-5-yl)-imidazolidin-2-one] | 0.4 | 
COC(=O)C(C)/N=C1\NC(=O)N(c2ccc3[nH]cnc3c2)C1C1CCC(C)=CC1C (stereo not drawn) [Compound 206, Methyl 2-(1-(1H-benzo[d]imidazol-5-yl)-5-(2,4-dimethylcyclohex-3-enyl)-2-oxoimidazolidin-4-ylideneamino)propanoate] | 7.6 | 
S=C1N/C(=N\C2CCCC2)C(c2ccc(N3CCCC3)cc2)N1c1ccc2[nH]cnc2c1 (stereo not drawn) [Compound 210, 1-(1H-Benzoimidazol-5-yl)-4-cyclopentylimino-5-(4-pyrrolidin-1-yl-phenyl)-imidazolidine-2-thione] | 3.1 | 
Oc1cccc(C2/C(=N/c3cc(Cl)ccc3Cl)NC(=S)N2c2ccc3[nH]cnc3c2)c1 (stereo not drawn) [Compound 214, 1-(1H-Benzoimidazol-5-yl)-4-2,5-dichloro-phenylimino-5-(3-hydroxy-phenyl)-imidazolidine-2-thione] | 7.6 | 

Further molecules by falling IC50 (read-out: IC50), results first:

IC50 (read-out: IC50) [µM] | IC50 (compound from preparative synthesis, purified by chromatography, fluorescent assay, read-out: IC50 hQC) [µM] | SMILES
9.4 |  | CC(CC1/C(=N/C2CCCc3ccccc32)NC(=O)N1c1ccc2[nH]cnc2c1)CC(C)(C)C (stereo not drawn) [Compound 197, 1-(1H-Benzoimidazol-5-yl)-4-1,2,3,4-tetrahydro-naphthalen-1-ylimino-5-(2,4,4-trimethyl-pentyl)-imidazolidin-2-one]
9.4 |  | O=C1N/C(=N\C2CCCCCC2)C(C2CCOC2)N1c1ccc2[nH]cnc2c1 (stereo not drawn) [Compound 205, 1-(1H-Benzoimidazol-5-yl)-4-cycloheptylimino-5-(tetrahydro-furan-3-yl)-imidazolidin-2-one]
7.6 |  | Fc1ccc(/N=C2\NC(=S)N(c3ccc4[nH]cnc4c3)C2c2ccnc3ccccc23)cc1 (stereo not drawn) [Compound 202, 1-(1H-Benzoimidazol-5-yl)-4-4-fluoro-phenylimino-5-quinolin-4-yl-imidazolidine-2-thione]
6.7 |  | O=C1CCCN1CCCN=C1NC(=O)N(c2ccc3[nH]cnc3c2)C1c1cccc2cccnc12 (stereo not drawn) [Compound 215, 1-(1H-Benzoimidazol-5-yl)-4-3-(2-oxo-pyrrolidin-1-yl)-propylimino-5-quinolin-8-yl-imidazolidin-2-one]
4.9 |  | O=C1N/C(=N\CCCN2CCOCC2)C(c2ccnc3ccccc23)N1c1ccc2[nH]cnc2c1 (stereo not drawn) [Compound 212, 1-(1H-Benzoimidazol-5-yl)-4-3-morpholin-4-yl-propylimino-5-quinolin-4-yl-imidazolidin-2-one]
4 |  | Cc1cccc(C2/C(=N\Cn3nnc4ccccc43)NC(=O)N2c2ccc3nc[nH]c3c2)n1 (stereo not drawn) [Compound 189, 1-(3H-Benzoimidazol-5-yl)-4-benzotriazol-1-ylmethylimino-5-(6-methyl-pyridin-2-yl)-imidazolidin-2-one]
4 |  | O=C1N/C(=N\C2CCc3ccccc32)CN1c1ccc2[nH]cnc2c1 (stereo not drawn) [Compound 198, 1-(1H-Benzoimidazol-5-yl)-4-indan-1-ylimino-imidazolidin-2-one]
4 |  | O=C(C/N=C1/NC(=O)N(c2ccc3nc[nH]c3c2)C1c1cc2c(cc1Br)OCO2)N1CCSCC1 (stereo not drawn) [Compound 201, 1-(3H-Benzoimidazol-5-yl)-5-(6-bromo-benzo1,3dioxol-5-yl)-4-2-oxo-2-thiomorpholin-4-yl-ethylimino-imidazolidin-2-one]
4 |  | O=C(C/N=C1\NC(=S)N(c2ccc3[nH]cnc3c2)C1c1cc2ccccc2s1)N1CCSCC1 (stereo not drawn) [Compound 207, 2-(5-(benzo[b]thiophen-2-yl)-1-(1H-benzo[d]imidazol-5-yl)-2-thioxoimidazolidin-4-ylideneamino)-1-thiomorpholinoethan-one]
4 |  | O=C(C/N=C1/NC(=O)N(c2ccc3[nH]cnc3c2)C1c1ccc(Br)cc1)N1CCSCC1 (stereo not drawn) [Compound 208, 1-(1H-Benzoimidazol-5-yl)-5-(4-bromo-phenyl)-4-2-oxo-2-thiomorpholin-4-yl-ethylimino-imidazolidin-2-one]
3.1 |  | O=c1c(C2/C(=N/c3cc(Cl)ccc3Cl)NC(=S)N2c2ccc3[nH]cnc3c2)coc2ccccc12 (stereo not drawn) [Compound 192, 3-{3-(1H-Benzoimidazol-5-yl)-5-2,5-dichloro-imidazolidin-4-yl}-chromen-4-one]
1.3 |  | CSc1ccc(C2C(=NCn3nnc4ccccc43)NC(=O)N2c2ccc3[nH]cnc3c2)cc1 (stereo not drawn) [Compound 181, 1-(1H-Benzoimidazol-5-yl)-4-benzotriazol-1-ylmethylimino-5-(4-methylsulfanyl-phenyl)-imidazolidin-2-one]
1.3 |  | O=C1N/C(=N\C2CCCCC2)C(c2cc(Br)cs2)N1c1ccc2[nH]cnc2c1 (stereo not drawn) [Compound 184]
1.3 |  | O=C1N/C(=N\CCCc2ccccc2)C(c2coc3ccccc3c2=O)N1c1ccc2[nH]cnc2c1 (stereo not drawn) [Compound 209, 1-(1H-Benzoimidazol-5-yl)-5-(4-oxo-4H-chromen-3-yl)-4-3-phenyl-propylimino-imidazolidin-2-one]
0.4 |  | CN(C)c1ccc(C2/C(=N\Cc3cccnc3)NC(=O)N2c2ccc3[nH]cnc3c2)cc1 (stereo not drawn) [Compound 180, 1-(1H-Benzoimidazol-5-yl)-5-(4-dimethylamino-phenyl)-4-pyridin-3-ylmethylimino-imidazolidin-2-one]
0.4 |  | O=C(CN=C1NC(=S)N(c2ccc3nc[nH]c3c2)C1c1cc(Br)cs1)N1CCCCC1 (stereo not drawn) [Compound 187, 2-(1-(1H-benzo[d]imidazol-6-yl)-5-(4-bromothiophen-2-yl)-2-thioxoimidazolidin-4-ylideneamino)-1-(piperidin-1-yl)ethanone]
0.4 |  | O=C1NC(=NC2CCCc3ccccc32)C(c2ccccc2Cl)N1c1ccc2[nH]cnc2c1 (stereo not drawn) [Compound 190, 1-(1H-Benzoimidazol-5-yl)-5-(2-chloro-phenyl)-4-1,2,3,4-tetrahydro-naphthalen-1-ylimino-imidazolidin-2-one]
0.004 |  | O=C1N/C(=N\C2CCCC2)C(c2cc(Br)cc(Br)c2)N1c1ccc2[nH]cnc2c1 (stereo not drawn) [Compound 186, 1-(1H-Benzoimidazol-5-yl)-4-cyclopentylimino-5-(3,5-dibromo-phenyl)-imidazolidin-2-one]
0.004 | 0.0377 | O=C1N/C(=N\C2CCCC2)C(c2ccc(Cl)cc2)N1c1ccc2[nH]cnc2c1 (stereo not drawn) [Compound 211, 1-(1H-Benzoimidazol-5-yl)-5-(4-chloro-phenyl)-4-cyclopentylimino-imidazolidin-2-one]
0.004 |  | Cc1ccc2occ(C3/C(=N/C4CCc5ccccc54)NC(=O)N3c3ccc4[nH]cnc4c3)c(=O)c2c1 (stereo not drawn) [Compound 213, 1-(1H-Benzoimidazol-5-yl)-4-indan-1-ylimino-5-(6-methyl-4-oxo-4H-chromen-3-yl)-imidazolidin-2-one]
